One series relates to Cryptosporidium parvum. The series is described as follows: Activity against Cryptosporidium parvum in suckling mice (oocyst counts). The class given is in vivo. The settings on record: suckling ICR outbred Swiss mice; for Oocysts: mean oocyst count, control 36.71; for % Reduction: reduction of mean oocyst count versus control.
The target of series [1] is topoisomerase I isolated from Pneumocystis carinii. Briefly: Topoisomerase I inhibition (Pneumocystis carinii enzyme). It is filed as biochemical. The settings on record: 50% inhibition of topoisomerase I isolated from Pneumocystis carinii.
Another series deals with Giardia lamblia. Briefly: Inhibition of growth of Giardia lamblia in in vitro culture. It is filed as cell-based.
Series [2] concerns the target topoisomerase II isolated from Giardia lamblia. The series is described as follows: Topoisomerase II inhibition (Giardia lamblia enzyme). The class given is biochemical. The note with it: 50% inhibition of topoisomerase II isolated from Giardia lamblia; read-out: IC50 Topoisomerase Activity II G.l.
In a further series the test system is poly A poly T. Briefly: DNA thermal melting (increase in Tm of poly A poly T). The class given is binding. The settings on record: MES buffer pH 6.0, 0.1 M NaCl, ratio of 0.3 moles of compound to nucleic acid bases. How it is done: (§1) Thermal melting curves for DNA and its complexes with compounds from Examples 4, 6, and 7-9 are determined as previously described in F.A. Tanious, et al., J.Biomol. Structure & Dynamics 11:1063 (1994) and W.D. Wilson, et al., Biochemistry 32:4098 (1993), by following the adsorption change at 260 nm as a function of temperature. Tm values were determined from first derivative plots. Compounds are compared by the increase in Tm (ΔTm=Tm of complex - Tm of the free nucleic acid) they produce in MES buffer (0.01M 2-(N-morpholino) ethanesulfonic acid, 0.001 M EDTA, 0.1 M NaCl adjusted to pH 6.0) at saturating amounts of compound (a ratio of 0.3 moles of compound to nucleic acid bases) unless otherwise indicated.

A further series relates to Pneumocystis carinii. Briefly: In vivo activity against Pneumocystis carinii (lung cyst counts and toxicity). The note with it: for Toxicity: toxicity scale, larger value = more severe, values greater than 2 indicate deaths of some animals.
For series [3], the system named is oligomer d(GCGCAATTGCGC)2. Briefly: DNA thermal melting (increase in Tm of oligomer). The class given is binding. The settings on record: increase in thermal melting of the oligomer d(GCGCAATTGCGC)2; MES buffer pH 6.0. How it is done:
as §1

Series [4] deals with T1, topoisomerase II isolated from Drosophila melanogaster (Drosophila melanogaster, UniProt P15348).
T1 construct: topoisomerase II isolated from Drosophila melanogaster; from tissue
T1 sequence (P15348 1-1447): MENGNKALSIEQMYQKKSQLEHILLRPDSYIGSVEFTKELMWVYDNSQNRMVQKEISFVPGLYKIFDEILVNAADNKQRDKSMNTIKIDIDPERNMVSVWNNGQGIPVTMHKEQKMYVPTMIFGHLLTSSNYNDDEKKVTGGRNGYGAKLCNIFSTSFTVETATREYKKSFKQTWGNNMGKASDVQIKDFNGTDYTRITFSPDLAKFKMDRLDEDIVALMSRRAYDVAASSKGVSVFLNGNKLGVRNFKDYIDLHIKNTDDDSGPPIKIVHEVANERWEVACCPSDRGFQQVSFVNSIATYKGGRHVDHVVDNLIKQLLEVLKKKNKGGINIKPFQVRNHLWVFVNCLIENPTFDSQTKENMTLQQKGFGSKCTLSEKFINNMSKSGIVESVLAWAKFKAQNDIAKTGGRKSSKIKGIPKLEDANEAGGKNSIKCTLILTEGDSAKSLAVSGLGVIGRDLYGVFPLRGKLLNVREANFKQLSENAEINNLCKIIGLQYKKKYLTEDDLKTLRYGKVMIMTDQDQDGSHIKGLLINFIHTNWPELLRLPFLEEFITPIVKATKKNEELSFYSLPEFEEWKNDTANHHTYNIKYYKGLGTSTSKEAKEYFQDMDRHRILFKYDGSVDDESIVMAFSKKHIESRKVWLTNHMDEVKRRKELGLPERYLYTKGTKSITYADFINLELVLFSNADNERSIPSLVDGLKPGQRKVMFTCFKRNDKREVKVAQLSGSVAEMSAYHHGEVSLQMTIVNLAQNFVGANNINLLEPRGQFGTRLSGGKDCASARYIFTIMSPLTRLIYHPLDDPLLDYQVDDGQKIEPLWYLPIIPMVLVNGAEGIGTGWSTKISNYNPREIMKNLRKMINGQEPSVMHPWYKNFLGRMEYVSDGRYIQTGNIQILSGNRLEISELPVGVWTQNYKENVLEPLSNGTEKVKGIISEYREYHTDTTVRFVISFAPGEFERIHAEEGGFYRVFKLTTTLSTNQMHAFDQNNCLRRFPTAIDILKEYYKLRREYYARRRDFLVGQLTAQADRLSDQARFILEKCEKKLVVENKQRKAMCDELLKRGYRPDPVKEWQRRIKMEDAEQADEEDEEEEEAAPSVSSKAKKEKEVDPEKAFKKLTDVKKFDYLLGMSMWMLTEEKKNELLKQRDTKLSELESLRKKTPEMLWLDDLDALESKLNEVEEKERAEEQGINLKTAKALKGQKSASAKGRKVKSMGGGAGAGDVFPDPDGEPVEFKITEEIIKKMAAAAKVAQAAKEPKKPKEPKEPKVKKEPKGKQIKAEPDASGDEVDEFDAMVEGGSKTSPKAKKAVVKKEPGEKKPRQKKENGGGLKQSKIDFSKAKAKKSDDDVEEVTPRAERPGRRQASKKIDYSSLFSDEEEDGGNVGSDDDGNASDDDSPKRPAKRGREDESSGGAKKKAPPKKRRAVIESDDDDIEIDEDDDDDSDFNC
Briefly: Topoisomerase II inhibition (Drosophila melanogaster enzyme). It is filed as biochemical.

Setting [5] is: Pneumocystis carinii, iv, read-out: cyst/g lung (% of control).
[6] abbreviates: Giardia duodenalis; read-out: IC50 Giardia lamblia.

The source of these data is EP0792271B1, “FURAN DERIVATIVES FOR INHIBITING PNEUMOCYSTIS CARINII PNEUMONIA, GIARDIA LAMBLIA AND CRYPTOSPORIDIUM PARVUM” (priority 1994, dated 1996).

Each structure is given as a SMILES string. Read-outs that look alike come from different tables or passages of the source.

One may read the IC50 as the midpoint of a concentration-inhibition curve. Regarding `N=C(N)c1ccc(-c2ccc(-c3ccc(C(=N)N)cc3)o2)cc1` [Compound 1, 2,5-bis(4-amidinophenyl)furan], in the series on Cryptosporidium parvum, the Oocysts is recorded as 6.6. For the same molecule, the “% Reduction” value with Cryptosporidium parvum turned out to be 66%. Also, the IC50 in series [1] is 100000 nM; in the series with Giardia lamblia (Giardia duodenalis, read-out: IC50 Giardia lamblia) it was 200 nM; in series [2] it was 500 to 1000 nM; in series [4], 2000 nM. The ΔTm DNA in the series with poly A poly T came to 25 °C. In the series on Pneumocystis carinii (setting [5]), the response vs control in vivo at 0.027 µM stood at 55.9%. Further, the response vs control in vivo at 0.27 µM in the series on Pneumocystis carinii (setting [5]) amounted to 4.8%. Besides, the response vs control in vivo at 2.7 µM in the series with Pneumocystis carinii (setting [5]) stood at 8.3%. Further, the response vs control in vivo at 13.3 µM with Pneumocystis carinii (setting [5]) worked out at 2.1%. In addition, in the series with Pneumocystis carinii (Pneumocystis carinii, po, read-out: cyst/g lung (% of control)), the response vs control in vivo at 66.3 µM is 28.4%. In addition, the Toxicity with Pneumocystis carinii (dosage 0.027 µM/kg/day intravenous) stood at 0; with Pneumocystis carinii (dosage 0.27 µM/kg/day intravenous) it was 0; in the series on Pneumocystis carinii (dosage 2.7 µM/kg/day intravenous), 0; with Pneumocystis carinii (dosage 13.3 µM/kg/day intravenous) it was 0; in the series with Pneumocystis carinii (dosage 66.3 µM/kg/day, oral dosage by gavage) it was 0. In addition, the ΔTm Oligomer in series [3] was found to be 11.7 °C.
With `c1cc(-c2ccc(-c3ccc(C4=NCCCN4)cc3)o2)ccc1C1=NCCCN1` [Compound 3, 2,5-di-p[2(3,4,5,6-tetrahydropyrimidyl)phenyl]furan], the IC50 in series [1] was over 100000 nM; in the series with Giardia lamblia (setting [6]), 60 nM; in series [2] it was 500 to 1000 nM; in series [4], 2500 nM. The ΔTm DNA in the series on poly A poly T is over 28 °C. The response vs control in vivo at 10.9 µM in the series with Pneumocystis carinii (setting [5]) was 0.4%. Moreover, in the series with Pneumocystis carinii (dosage 10.9 µM/kg/day intravenous), the Toxicity result is recorded as “+2”. For the same molecule, in series [3], the ΔTm Oligomer was found to be 13.5 °C.
As for `Cc1c(-c2ccc(C(=N)N)cc2)oc(-c2ccc(C(=N)N)cc2)c1C` [Compound 8, 2,5-bis(4-amidinophenyl)-3,4-dimethyl furan], the IC50 in series [1] is under 3120 nM; in the series with Giardia lamblia (setting [6]) it was 260 nM; in series [2], 750 nM; in series [4], 2400 nM. Also, the Toxicity entry in the series with Pneumocystis carinii (dosage 24.7 µM/kg/day intravenous) is on record as “+1”.
Take `Cc1ccc(Oc2cc(-c3ccc(C4=NCCN4)cc3)oc2-c2ccc(C3=NCCN3)cc2)cc1` [Compound 9, 2,5-[bis{4-(2-imidazolinyl)}phenyl]3-p-tolyloxy furan]: the IC50 is 12500 nM in series [1], over 100000 nM in the series with Giardia lamblia (setting [6]), 2000 to 4000 nM in series [2] and 25000 nM in series [4]. In addition, in the series with poly A poly T, the ΔTm DNA was determined as 18.1 °C. Moreover, the Toxicity result with Pneumocystis carinii (dosage 9.3 µM/kg/day intravenous) is on record as “+2”.
Regarding `CC(C)NC(=N)c1ccc(-c2ccc(-c3ccc(C(=N)NC(C)C)cc3)o2)cc1` [Compound 13, 2,5-bis[4-(N-isopropylamidino)phenyl]furan], the Oocysts with Cryptosporidium parvum was 2.13. The “% Reduction” value with Cryptosporidium parvum amounted to 94.2%. In addition, the IC50 is 140 nM in the series on Giardia lamblia (setting [6]), 500 to 1000 nM in series [2] and 15000 to 30000 nM in series [4]. Also, in the series on poly A poly T, the ΔTm DNA was determined as 23.1 °C. Besides, the Toxicity in the series with Pneumocystis carinii (dosage 10.8 µM/kg/day intravenous) is recorded as 0.
